In PubChem BioAssay (NCI) one finds TGI and GI50 data, which are given here for 13 molecules.

Test systems include OVCAR-5 ovarian; SK-MEL-2 melanoma; SNB-75 CNS; A498 renal; MCF7 breast; MDA-MB-231 breast; NCI/ADR-RES ovarian; PC-3 prostate; T-47D breast; BT-549 breast.
Holding throughout (assay): NCI anticancer screen, dose series, 48 h

Molecules are shown by their SMILES. “And” between values parts separate entries of the source, which are not always exact repeats. Equal values may be shown once.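 Values below derive from 48-hour exposures of cells grown in 96-well plates, with endpoints linearly interpolated between the two concentrations bracketing the appropriate inhibition level. GI50: concentration for 50% inhibition of growth. The concentration for full growth arrest is given as TGI.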

As to `COC(=O)C1=C(C(=O)OC)C2=S(SC3=C2CCCC3)S1` (stereo not given), the TGI in the assay with OVCAR-5 ovarian stood at 93.6 µM; in the assay with SK-MEL-2 melanoma it was 85.6 µM; in the assay on SNB-75 CNS it was 62.7 µM.
For `C[Si](C)(C)/C(I)=C/CO`, the TGI in the assay with A498 renal is above 100 µM; in the assay on OVCAR-5 ovarian, 69 µM; in the assay on SK-MEL-2 melanoma it was 38.4 µM; in the assay on SNB-75 CNS it was above 100 µM.
For the molecule `COc1ccc(-c2nnc(N3CCN(C(=O)CN4CCN(c5ccccc5)CC4)CC3)nc2-c2ccc(OC)cc2)cc1`, the GI50 in the assay with A498 renal is 3 µM; in the assay with MCF7 breast, 2.8 µM; in the assay with MDA-MB-231 breast it was 13.4 µM; with NCI/ADR-RES ovarian it was 5.15 µM; in the assay with OVCAR-5 ovarian, above 100 µM; in the assay on PC-3 prostate, 3.83 µM. The GI50 in the assay with SK-MEL-2 melanoma was 9.13 µM; in the assay on SNB-75 CNS, 14.4 µM. For the same molecule, the TGI in the assay on A498 renal was 19.1 µM; in the assay on MCF7 breast, above 100 µM; with MDA-MB-231 breast, above 100 µM; in the assay on NCI/ADR-RES ovarian it was above 100 µM; with OVCAR-5 ovarian it was above 100 µM; in the assay with PC-3 prostate, above 100 µM. Also, the values for the TGI with SK-MEL-2 melanoma and in the assay with SNB-75 CNS were 55.8 µM and 48.7 µM, respectively.
`[N-]=[N+]=N/C1=C/CCCCC(=O)C1`: the TGI with OVCAR-5 ovarian, with SK-MEL-2 melanoma and in the assay on SNB-75 CNS was above 100 µM in each case.
On to `COc1cc(/C=C\c2cc(OC)c(OC)c(OC)c2)cc(N/C=C\C(=O)c2cc(OC)c(OC)c(OC)c2)c1OC`, for which the GI50 is 2.4 µM in the assay with A498 renal; 2.34 µM in the assay with MCF7 breast; 4.01 µM in the assay on MDA-MB-231 breast; 3.12 µM with NCI/ADR-RES ovarian; 3.64 µM with OVCAR-5 ovarian; 2.89 µM with PC-3 prostate. In addition, the values for the GI50 in the assay on SK-MEL-2 melanoma, in the assay with SNB-75 CNS and in the assay on T-47D breast were 4.54 µM, 1.39 µM and 1.68 µM, respectively. For the same molecule, the TGI is 7.89 µM in the assay on A498 renal; above 100 µM with MCF7 breast; above 100 µM in the assay on MDA-MB-231 breast; above 100 µM in the assay with NCI/ADR-RES ovarian; above 100 µM in the assay on OVCAR-5 ovarian; above 100 µM in the assay on PC-3 prostate. Also, the TGI was above 100 µM with SK-MEL-2 melanoma, 4.81 µM in the assay with SNB-75 CNS and 6.83 µM in the assay with T-47D breast.
For the molecule `Cn1cc(-c2csc(-c3c[nH]c4ccc(Br)cc34)n2)c2cnccc21`, the GI50 was 12.6 µM in the assay with A498 renal; 26.3 µM in the assay with BT-549 breast; 1.77 µM with MCF7 breast; 2.34 µM in the assay on MDA-MB-231 breast; 2.02 µM in the assay on PC-3 prostate; 2.58 µM with SK-MEL-2 melanoma. Moreover, the TGI in the assay on A498 renal was above 100 µM; with BT-549 breast it was above 100 µM; in the assay with MCF7 breast, 3.71 µM; with MDA-MB-231 breast, 5.55 µM; in the assay with PC-3 prostate, 4.15 µM; in the assay with SK-MEL-2 melanoma, 6.35 µM.
As for `O=C(Nc1ccc(Cl)c(C(F)(F)F)c1)c1ccc(NC2=C(Cl)C(=O)N(Cc3ccccc3)C2=O)cc1`, the GI50 is 2.28 µM in the assay on BT-549 breast; 17.1 µM in the assay on MDA-MB-231 breast; 3.39 µM in the assay with PC-3 prostate; 13.8 µM in the assay on SK-MEL-2 melanoma; 13.8 µM in the assay with SNB-75 CNS; 6.11 µM in the assay with T-47D breast. Also, the TGI was 5.78 µM with BT-549 breast; 31 µM with MDA-MB-231 breast; 11.8 µM in the assay on PC-3 prostate; 38.7 µM in the assay on SK-MEL-2 melanoma; 33.9 µM with SNB-75 CNS; above 100 µM in the assay on T-47D breast.
Consider `COc1ccc2c(c1)c[n+](C)c1c3cc(OC)c(OC)cc3ccc21`, for which the GI50 was 2.02 µM and 19.7 µM in the assay on A498 renal; 2.4 µM and 10.2 µM in the assay on BT-549 breast; 1.52 µM and 11.8 µM with OVCAR-5 ovarian; 1.36 µM and 4.32 µM in the assay on PC-3 prostate; 2.3 µM and 7.11 µM in the assay on SK-MEL-2 melanoma; 6.66 µM in the assay on SNB-75 CNS. Also, in the assay on T-47D breast, the GI50 was 1.95 µM and 5.02 µM. Further, the TGI in the assay on A498 renal was 6.85 µM and 57.7 µM; with BT-549 breast, 9.63 µM and 26.2 µM; in the assay on MDA-MB-231 breast, 2.83 µM and 3.07 µM; in the assay on NCI/ADR-RES ovarian it was above 100 µM; with OVCAR-5 ovarian, 5.17 µM and 25 µM; in the assay with PC-3 prostate, 3.84 µM and 16 µM. In addition, the TGI in the assay with SK-MEL-2 melanoma is 6.12 µM and 16.9 µM; in the assay with SNB-75 CNS, 20 µM; in the assay with T-47D breast, 4.93 µM and 26.4 µM.
`CC(=O)N1CCC(=O)/C(=C/c2ccccc2)C1`: the TGI in the assay with A498 renal, with OVCAR-5 ovarian and with SNB-75 CNS was above 100 µM throughout.
With `CSc1ccccc1C#C/C=C\C#Cc1ccccc1N`, the GI50 with A498 renal is 4.18 µM; in the assay on BT-549 breast it was 3.27 µM; in the assay on MDA-MB-231 breast, 4.69 µM; in the assay on NCI/ADR-RES ovarian, 4.05 µM; in the assay with OVCAR-5 ovarian, 19.4 µM; in the assay with PC-3 prostate, 14.5 µM. The GI50 in the assay on SK-MEL-2 melanoma is 6.13 µM; in the assay with SNB-75 CNS, 36.3 µM; in the assay on T-47D breast, 17.6 µM. Also, the TGI in the assay with A498 renal is 14.5 µM; in the assay on BT-549 breast, 9.17 µM; in the assay with MDA-MB-231 breast, 22.2 µM; with NCI/ADR-RES ovarian it was 16 µM; in the assay on OVCAR-5 ovarian it was 50 µM; in the assay with PC-3 prostate it was above 100 µM. Further, the results for the TGI with SK-MEL-2 melanoma, in the assay on SNB-75 CNS and in the assay with T-47D breast were above 100 µM, 81 µM and 38.6 µM, respectively.
Consider `Cc1ccc(S(=O)OCc2c(C)c(C)c(COS(=O)c3ccc(C)cc3)c(C)c2C)cc1` (stereo not given), for which the TGI in the assay on A498 renal, in the assay with OVCAR-5 ovarian and in the assay with SNB-75 CNS was above 100 µM in each case.
With `Oc1ccc2ccccc2c1N=Nc1ccc(Br)cc1`, the TGI in the assay with BT-549 breast, in the assay on MDA-MB-231 breast, in the assay on NCI/ADR-RES ovarian, in the assay with OVCAR-5 ovarian, in the assay with PC-3 prostate and in the assay with SK-MEL-2 melanoma was above 100 µM throughout. Also, the TGI in the assay with SNB-75 CNS and in the assay on T-47D breast was above 100 µM each time.
Consider `COc1cccc2c1C(=O)c1c(O)c3c(c(O)c1C2=O)C[C@@](O)(/C(C)=N/NC(=O)c1ccc(Cl)cc1)C[C@@H]3OC1CC(N)C(O)C(C)O1` (stereo not given in full), for which the GI50 in the assay on A498 renal is 0.129 µM; in the assay on MDA-MB-231 breast, 0.603 µM; in the assay with NCI/ADR-RES ovarian, 4.6 µM; in the assay on OVCAR-5 ovarian it was 0.379 µM; in the assay with PC-3 prostate it was 0.293 µM; in the assay with SNB-75 CNS, 0.102 µM. Further, the GI50 in the assay on T-47D breast is 0.163 µM. The TGI was determined as 0.625 µM in the assay on A498 renal; 2.77 µM in the assay on MDA-MB-231 breast; 44.3 µM with NCI/ADR-RES ovarian; 3.81 µM in the assay with OVCAR-5 ovarian; 1.6 µM in the assay with PC-3 prostate; 0.552 µM in the assay on SNB-75 CNS. The same molecule gave a TGI in the assay on T-47D breast of 1.79 µM.
